Measured values taken from patent US20230404958A1, “AGENT FOR […] DAMAGE INDUCED BY RHABDOMYOLYSIS” (Niigata University, priority 2021, published 2023).

Tests used:
[1] = system: myoglobin uptake into kidney tissues; details: rhabdomyolysis model mice; 24 hours after glycerol dosing; anti-myoglobin immunostaining; FIG. 5
Experimental: In line with Test Example 1, 50% glycerol was administered to C57BL/6 (male, aged 10-12 weeks), thereby constructing rhabdomyolysis model mice.
Twenty-four hours after glycerol dosing, a portion containing a kidney pedicle was sliced to 3 mm thickness from the right kidney and fixed with 4% paraformaldehyde phosphate buffer.

[2] = system: uptake of each ligand into kidney tissues through megalin; details: cilastatin sodium 400 mg/kg intraperitoneally, urine collected 3 hours
Experimental: Cilastatin was administered to mice and changes in concentrations of each ligand in urine were observed.
Five mice (male, aged 12 weeks C57BL/6) were intraperitoneally administered with 400 mg/kg (diluted in 100 μL of normal saline, cilastatin-treated group) of cilastatin sodium (Sigma-Aldrich Japan K.K., C5743), and then put in a metabolic cage for 3 hours to collect urine, and the urines of 5 mice were combined. Additionally, 100 μL of normal saline was administered to another group of 5 mice (control group), and the same experiment as above was conducted.
Proteins were isolated from the obtained urine samples by electrophoresis (SDS-polyacrylamide gel), reductively alkylated (using dithiothreitol and iodoacetamide), digested with trypsin, and the obtained peptides were extracted to obtain a solid.
To the obtained solid, 15 μL of 0.3% formic acid (FA) was added, shaken for 5 minutes, sonicated for 1 minute, and shaken again for 5 minutes. The resultant mixture was spun down, applied to a membrane filter having a pore diameter of 0.45 μm (ULtra free-MC, HV, 0.45 μm, Millipore), centrifuged at 10,000 rpm for 5 minutes, and the sample passed through the filter was subjected to LCMS analysis.
AnaLyst® TF1.6 (AB SCIEX) was used as an LCMS/MS data acquisition and analysis software, and the obtained raw data were converted to a peak list file (mgf file format), whereby MS/MS Ion Search (MIS search) was conducted using Matrix Science Mascot daemon, Mascot server 2.2.1. The sequence data base used was Uniprot, Swiss-Prot. Significance threshold was set to 0.05 (false discovery rate of less than 5%), and the proteins having 2 or more peptides exceeding the identification standard were listed as identified proteins.
Raw data were acquired 2 times per sample at LCMS to cover the issue of analysis reproducibility at LCMS, and the peak list files obtained from the 2 runs were combined and analyzed using Mascot (Ohara et al., 2018, PLoS One, vol. 13, 1, e0204160).
To the proteins identified in common in 2 groups when compared, the spectral count method was used, which is a label-free comparative, semiquantitative analysis method utilizing a principle that a large number of peptide fragments will be identified in those expressed at high levels, resulting in the increase in the number of MS/MS. In other words, the proteins identified in both of the cilastatin-treated group and control group were calculated for an SpC/L ratio (spectral abundance factor: SAF) of the cilastatin-treated group/control group, and the proteins having an SpC/L ratio of 2.0 or more were listed as the proteins abundant in urine of the cilastatin-treated group.

[3] = system: rhabdomyolysis model mice; details: 400 mg/kg intraperitoneally; 24 hours after glycerol administration; vs normal saline control group; FIG. 1
Experimental: Serum potassium, which elevates when a renal function is reduced, was measured to verify whether the onset of renal injuries in rhabdomyolysis model mice is inhibited by cilastatin administration.
To C57BL/6 (male, aged 10-12 weeks), 5 mL/kg of a solution of 50% volume/volume glycerol (FUJIFILM Wako Pure Chemical Corporation)/PBS was prepared, and the solution was intramuscularly injected to the right hind limb, thereby constructing rhabdomyolysis nephropathy models. The administered animals were divided into 2 groups (6 mice per group), and intraperitoneally administered with a) 400 mg/kg (diluted in 100 μL of normal saline) of cilastatin (Sigma-Aldrich Inc.) or b) 100 μL of normal saline as a control.
The serum was stored at −80° C. until analysis and the measurement of serum potassium was conducted by Oriental Yeast Co., Ltd.

[4] = biological target: megalin (binding to Hx) (Rattus norvegicus, UniProt P98158); details: 1 mg of cilastatin injected into buffer (200 μL) in advance; FIG. 2-1
Chain of megalin (binding to Hx) (P98158 26-4660): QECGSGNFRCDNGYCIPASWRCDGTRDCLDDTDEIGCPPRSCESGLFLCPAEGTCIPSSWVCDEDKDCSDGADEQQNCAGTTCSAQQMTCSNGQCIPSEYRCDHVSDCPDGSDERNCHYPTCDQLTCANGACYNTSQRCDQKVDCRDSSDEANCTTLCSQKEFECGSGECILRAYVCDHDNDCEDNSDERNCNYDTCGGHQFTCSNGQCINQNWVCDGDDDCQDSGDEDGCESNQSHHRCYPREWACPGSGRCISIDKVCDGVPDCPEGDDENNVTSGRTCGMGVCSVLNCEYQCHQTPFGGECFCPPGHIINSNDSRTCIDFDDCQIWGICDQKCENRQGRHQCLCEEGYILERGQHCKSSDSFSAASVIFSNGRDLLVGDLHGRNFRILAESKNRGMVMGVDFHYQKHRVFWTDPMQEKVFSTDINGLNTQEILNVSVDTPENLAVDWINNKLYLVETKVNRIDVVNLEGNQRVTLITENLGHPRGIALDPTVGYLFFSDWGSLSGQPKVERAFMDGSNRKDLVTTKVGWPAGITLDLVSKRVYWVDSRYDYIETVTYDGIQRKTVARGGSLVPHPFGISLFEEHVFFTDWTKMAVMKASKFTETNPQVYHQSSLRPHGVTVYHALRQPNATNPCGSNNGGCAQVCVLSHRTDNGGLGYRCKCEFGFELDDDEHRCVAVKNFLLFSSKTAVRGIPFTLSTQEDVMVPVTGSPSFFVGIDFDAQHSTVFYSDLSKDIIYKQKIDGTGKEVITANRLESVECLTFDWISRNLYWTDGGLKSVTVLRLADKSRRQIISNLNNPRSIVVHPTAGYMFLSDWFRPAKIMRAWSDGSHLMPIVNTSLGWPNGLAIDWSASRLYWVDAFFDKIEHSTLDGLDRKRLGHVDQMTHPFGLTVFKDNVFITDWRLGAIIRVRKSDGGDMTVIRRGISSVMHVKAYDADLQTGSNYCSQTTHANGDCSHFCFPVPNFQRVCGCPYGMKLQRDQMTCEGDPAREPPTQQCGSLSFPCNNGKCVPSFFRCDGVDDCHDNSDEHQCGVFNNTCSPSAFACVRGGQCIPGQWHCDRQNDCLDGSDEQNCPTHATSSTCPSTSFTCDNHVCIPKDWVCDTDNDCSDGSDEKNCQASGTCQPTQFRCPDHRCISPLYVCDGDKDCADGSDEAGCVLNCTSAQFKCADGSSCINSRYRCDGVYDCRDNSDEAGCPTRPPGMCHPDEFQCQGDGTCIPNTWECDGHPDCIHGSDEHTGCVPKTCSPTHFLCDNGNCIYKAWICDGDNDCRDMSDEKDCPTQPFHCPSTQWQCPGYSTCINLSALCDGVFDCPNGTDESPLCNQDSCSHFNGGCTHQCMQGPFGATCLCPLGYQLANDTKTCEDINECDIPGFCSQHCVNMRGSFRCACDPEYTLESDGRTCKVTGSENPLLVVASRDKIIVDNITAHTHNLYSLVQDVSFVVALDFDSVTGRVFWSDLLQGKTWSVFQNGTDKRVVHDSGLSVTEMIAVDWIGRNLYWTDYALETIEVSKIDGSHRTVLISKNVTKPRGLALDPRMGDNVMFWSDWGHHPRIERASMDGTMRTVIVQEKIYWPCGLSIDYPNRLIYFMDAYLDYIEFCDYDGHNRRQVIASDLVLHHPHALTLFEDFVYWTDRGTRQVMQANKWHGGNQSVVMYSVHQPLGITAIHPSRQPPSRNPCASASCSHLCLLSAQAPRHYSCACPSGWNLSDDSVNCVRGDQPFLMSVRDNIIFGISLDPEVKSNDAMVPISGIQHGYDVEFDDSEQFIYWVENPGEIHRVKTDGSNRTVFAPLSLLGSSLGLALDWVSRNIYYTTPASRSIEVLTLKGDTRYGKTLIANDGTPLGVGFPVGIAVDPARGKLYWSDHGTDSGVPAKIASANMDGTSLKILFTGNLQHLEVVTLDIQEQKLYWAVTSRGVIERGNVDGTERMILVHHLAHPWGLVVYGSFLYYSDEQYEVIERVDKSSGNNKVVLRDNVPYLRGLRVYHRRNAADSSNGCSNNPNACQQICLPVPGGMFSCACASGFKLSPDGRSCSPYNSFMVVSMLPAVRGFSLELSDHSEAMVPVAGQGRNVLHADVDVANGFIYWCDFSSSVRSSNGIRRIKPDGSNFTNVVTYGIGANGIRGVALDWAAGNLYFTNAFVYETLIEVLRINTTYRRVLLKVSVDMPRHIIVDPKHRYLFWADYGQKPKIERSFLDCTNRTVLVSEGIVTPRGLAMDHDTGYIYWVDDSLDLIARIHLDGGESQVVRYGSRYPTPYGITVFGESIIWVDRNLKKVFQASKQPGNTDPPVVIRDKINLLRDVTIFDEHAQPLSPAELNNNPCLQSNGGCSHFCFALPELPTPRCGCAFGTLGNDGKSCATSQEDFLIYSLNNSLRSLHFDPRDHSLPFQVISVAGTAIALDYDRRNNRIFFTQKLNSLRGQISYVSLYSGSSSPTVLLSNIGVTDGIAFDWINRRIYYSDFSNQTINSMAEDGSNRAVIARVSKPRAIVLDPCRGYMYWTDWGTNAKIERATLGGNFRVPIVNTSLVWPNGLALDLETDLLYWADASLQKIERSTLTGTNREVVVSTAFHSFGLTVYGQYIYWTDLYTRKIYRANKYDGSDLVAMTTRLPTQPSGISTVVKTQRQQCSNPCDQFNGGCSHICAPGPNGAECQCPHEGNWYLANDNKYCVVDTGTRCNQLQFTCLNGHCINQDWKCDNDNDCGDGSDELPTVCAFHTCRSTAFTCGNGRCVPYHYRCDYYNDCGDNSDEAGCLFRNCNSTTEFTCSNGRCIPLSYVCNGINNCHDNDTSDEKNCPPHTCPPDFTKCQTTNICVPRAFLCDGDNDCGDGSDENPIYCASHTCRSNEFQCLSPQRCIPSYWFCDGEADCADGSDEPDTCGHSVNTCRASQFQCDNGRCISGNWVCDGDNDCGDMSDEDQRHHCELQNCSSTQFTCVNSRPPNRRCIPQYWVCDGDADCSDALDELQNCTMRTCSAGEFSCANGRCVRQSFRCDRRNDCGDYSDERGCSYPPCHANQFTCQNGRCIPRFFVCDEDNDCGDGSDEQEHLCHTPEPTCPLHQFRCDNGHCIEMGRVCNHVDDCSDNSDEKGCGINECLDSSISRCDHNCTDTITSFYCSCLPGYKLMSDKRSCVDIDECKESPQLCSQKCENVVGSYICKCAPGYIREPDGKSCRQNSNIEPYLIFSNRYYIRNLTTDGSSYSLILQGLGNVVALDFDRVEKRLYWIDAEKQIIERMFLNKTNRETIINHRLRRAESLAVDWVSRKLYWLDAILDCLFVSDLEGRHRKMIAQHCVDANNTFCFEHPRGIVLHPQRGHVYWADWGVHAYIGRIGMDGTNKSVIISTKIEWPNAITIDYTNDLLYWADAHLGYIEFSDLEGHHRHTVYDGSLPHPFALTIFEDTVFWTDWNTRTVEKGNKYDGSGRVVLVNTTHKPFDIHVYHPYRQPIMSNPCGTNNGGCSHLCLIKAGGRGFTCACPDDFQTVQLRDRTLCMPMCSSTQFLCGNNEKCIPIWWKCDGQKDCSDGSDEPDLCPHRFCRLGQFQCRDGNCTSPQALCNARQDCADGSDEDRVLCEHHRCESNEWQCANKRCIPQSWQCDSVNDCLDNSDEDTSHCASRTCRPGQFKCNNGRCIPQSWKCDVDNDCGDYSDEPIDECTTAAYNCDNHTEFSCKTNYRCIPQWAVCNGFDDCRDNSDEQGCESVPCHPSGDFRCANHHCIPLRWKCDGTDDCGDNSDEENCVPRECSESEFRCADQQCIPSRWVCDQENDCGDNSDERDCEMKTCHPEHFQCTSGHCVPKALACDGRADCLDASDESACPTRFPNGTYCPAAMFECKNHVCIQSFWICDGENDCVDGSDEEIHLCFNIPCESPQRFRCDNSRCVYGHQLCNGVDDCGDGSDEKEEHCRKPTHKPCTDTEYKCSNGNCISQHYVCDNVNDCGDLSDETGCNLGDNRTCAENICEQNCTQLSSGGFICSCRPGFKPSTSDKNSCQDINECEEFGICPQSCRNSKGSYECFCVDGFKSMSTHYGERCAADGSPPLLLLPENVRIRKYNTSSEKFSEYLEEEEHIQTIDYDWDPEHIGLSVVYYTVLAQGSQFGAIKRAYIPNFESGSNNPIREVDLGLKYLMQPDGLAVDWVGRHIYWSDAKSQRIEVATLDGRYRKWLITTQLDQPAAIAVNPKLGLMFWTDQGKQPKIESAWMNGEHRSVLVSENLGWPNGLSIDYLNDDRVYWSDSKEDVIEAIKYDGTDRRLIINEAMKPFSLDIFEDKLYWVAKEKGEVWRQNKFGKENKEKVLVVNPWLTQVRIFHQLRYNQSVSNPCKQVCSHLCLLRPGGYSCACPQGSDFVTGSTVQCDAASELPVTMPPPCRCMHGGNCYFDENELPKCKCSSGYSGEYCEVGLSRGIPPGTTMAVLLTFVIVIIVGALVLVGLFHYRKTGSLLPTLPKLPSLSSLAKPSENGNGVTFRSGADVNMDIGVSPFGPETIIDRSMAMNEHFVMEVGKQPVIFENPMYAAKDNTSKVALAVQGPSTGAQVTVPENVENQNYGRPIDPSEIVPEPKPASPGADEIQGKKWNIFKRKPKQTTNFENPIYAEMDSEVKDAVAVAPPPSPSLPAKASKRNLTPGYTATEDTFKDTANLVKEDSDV
Text: (§1) Binding specificity between megalin and each ligand (myoglobin, α1M, and Hx) and the possible binding inhibition by cilastatin were verified using the quartz crystal microbalance (QCM) method by reference to the method described in PTL 2.
(§2) For the ligands to be verified, myoglobin (LifeSpan Biosciences Inc., Rat […] Native Protein, LS-G11201) and Hx (Sino Biological Inc., Rat Hemopexin/HPX protein (His Tag 81025-R08H)) were used. […]
(§3) After each of the ligand- or BSA-immobilized quartz crystal sensor was mounted in the measurement instrument AFFINIX® Q8 (Initium Inc.) and the frequency was confirmed to be stable, 8 μL of a 0.1 mg/mL solution of megalin purified from Sprague-Dawley (SD) rat kidneys according to the method of Orlando et al. was injected and frequency was measured with time.
(§4) More specifically, the megalin solution was reacted with each of the ligand-immobilized quartz crystal sensors placed under the water surface with 200 μL of buffer, and the frequency was measured.
(§5) Additionally, 1 mg of cilastatin was injected into buffer in advance, each of the ligand-immobilized quartz crystal sensors was mounted in the measurement instrument, and after the frequency was confirmed to be stable, the megalin solution was injected and frequency was measured with time, whereby the antagonistic activity of cilastatin against the binding of each ligand to megalin was analyzed. […]

[5] = biological target: megalin (binding to myoglobin) (Rattus norvegicus, UniProt P98158); details: 1 mg of cilastatin injected into buffer (200 μL) in advance; FIG. 2-1
Chain of megalin (binding to myoglobin) (P98158 26-4660): as above
Text: as §1, §2, §3, §4, §5

[6] = biological target: megalin (binding to α1M) (Rattus norvegicus, UniProt P98158); details: 1 mg/200 μL of cilastatin injected into buffer in advance; FIG. 2-2
Chain of megalin (binding to α1M) (P98158 26-4660): as above
Text: as §1

[7] = cilastatin-treated group/control group, pooled from 5 mice

drop of quartz crystal signals on adding megalin to Hx-immobilized sensor (megalin-Hx binding) [4]: inhibited
drop of quartz crystal signals on adding megalin to myoglobin-immobilized sensor (megalin-myoglobin binding) [5]: inhibited
drop of quartz crystal signals on adding α1M to megalin-immobilized sensor (megalin-α1M binding) [6]: inhibited
SMILES: CC1(C)C[C@@H]1C(=O)N/C(=C\CCCCSC[C@H](N)C(=O)O)C(=O)O [cilastatin, (Z)-7-[[(R)-2-Amino-2-carboxyethyl]thio]-2-[[[(S)-2,2-dimethylcyclopropyl]carbonyl]amino]-2-heptenoic acid]
amounts of myoglobin taken up into kidney tissues [1]: reduced
number of urinary proteins having an SpC/L ratio of the cilastatin-treated group/control group of 2.0 or more [2]: 63 kinds
SpC/L ratio, urinary Albumin [2, 7]: 1.10
SpC/L ratio, urinary Clusterin [2, 7]: 0.73
SpC/L ratio, urinary Transthyretin [2, 7]: 1.00
SpC/L ratio, urinary Vitamin D-binding protein [2, 7]: 0.80
serum potassium [3]: lower values than the control group
